Patent US12240811B2, “N-heterocyclic five-membered ring-containing capsid protein assembly inhibitor, pharmaceutical composition and uses thereof” (CHIA TAI TIANQING PHARMACEUTICAL GROUP CO., LTD., priority 2019, dated 2025)

Test system: HBV DNA in HepAD38 cells
Assay: In vitro cell HBV DNA inhibitory activity in HepAD38 cells
Format: cell-based
Details: Hepatitis B virus, 144 h, 6 days treatment, intracellular capsid HBV DNA by qPCR, read-out: EC50, anti-HBV activity in HepAD38 cells
Protocol: A bottle of HepG2.2.15 (Wuhan Institute of Virology) or HepAD38 cells in good exponential growth state was taken, washed once by adding 5 mL PBS, and then thereto was added 3 mL trypsin. After digesting at room temperature for 5 min, 2 mL trypsin was discarded, and then the sample was placed in a cell culture incubator and digested for 10 min. The cells were taken out and observed under a microscope (whether the cells were individually round and there was no adhesion between the cells). 10 mL complete medium was added to terminate the digestion. After pipetting into a single cell suspension, 10 μL of the cell suspension was taken out for cell counting with a cell counter, and then diluted with a complete medium and adjusted to a cell density of 1*10^5 cells/mL. […]
Compounds dissolved in DMSO were subjected to two-fold gradient dilution (10 concentrations in total) with complete medium. […] After lysing at room temperature for 10 min, DNA was extracted, and HBV DNA in the intracellular viral capsid was measured by real-time fluorescence quantitative PCR. The inhibition rate was calculated based on the Ct value, and the EC50 value was calculated by the four-parameter method.

Cc1[nH]c(C(=O)C(=O)N[C@@H](C)C(F)(F)F)c(C)c1C(=O)Nc1ccc(F)c(C#N)c1 [Example 1, (S)—N-(3-cyano-4-fluorophenyl)-2,4-dimethyl-5-(2-oxo-2-((1,1,1-trifluoroprop-2-yl)amino)acetyl)-1H-pyrrole-3-carboxamide]
EC50: 24 nM
